Results: patent US20230047208A1, “RNA Splicing Modulation” (The General Hospital Corporation, priority 2020, published 2023)

Tests used:
[1] = system: human ELP1 gene with a Exon 20 splice mutation; test: In vivo full-length and Δ20 ELP1 mRNA by RT-qPCR in TgFD9 mice; design: species or system TgFD9 transgenic mice; settings: oral gavage once daily for 7 days, 10, 30, 60 or 100 mg/kg
Experimental: FIGS. 7A-7G show the relative expression of full-length (FL) and Δ20 ELP1 mRNA (left panel), and ELP1 protein quantification (right panel) in brain (FIG. 7A) and liver (FIG. 7B) after oral doses of Compound (I) ranging from 10 to 100 mg/kg in adult transgenic TgFD9 mouse (n=4-6 mice in each treatment group). Comparisons were done within the same group, against the vehicle-treated mice. In the figure, *p<0.05; **p<0.01; ***p<0.001.
FIGS. 7C-E show the relative expression of full-length (FL) and Δ20 ELP1 mRNA (left graphs), and ELP1 protein quantification (right graphs) in kidney (FIG. 7C), heart (FIG. 7D) and skin (FIG. 7E) after oral doses of Compound (I) ranging from 10 to 100 mg/kg in adult transgenic TgFD9 mouse (n=4-6 mice in each treatment group). […] The levels of compound were measured using mass spectrometry. […]
Compound (I) was evaluated in vivo to determine whether splicing correction can lead to a concomitant increase in ELP1 protein. […]
Brain, liver, lung, kidney, heart and skin tissues were removed and snap frozen in liquid nitrogen. […] The yield, purity and quality of the total RNA for each sample were determined using a Nanodrop ND-1000 spectrophotometer. Full-length and mutant ELP1 mRNA expression was quantified by quantitative real-time PCR (qRT-PCR) analysis using CFX384 Touch Real-Time PCR Detection System (BioRad). […] Data were analyzed using SDS software.

[2] = system: CFTR gene c.2988G>A, exon 18; test: CFTR c.2988G>A minigene (EMG-MUT) exon 18 splicing in HEK293 cells, RT-PCR; assay type: cell-based; settings: 60 μM, 24 hours
From the text: FIGS. 4C-4F Upper row: The sequences at the 5′ splice site of Exon X in patient cells and minigene constructs are shown (FIGS. 4C-4F). The sequences around the 5′ splice site of Exon X are shown in LOGO plots, with the closely matched CNN motifs indicated beneath the plots. […] Middle row: RT-PCR experiments validated treatment responses in patient cell lines carrying specific splice site mutations. The upper bands indicate the isoform in which the middle Exon X is included while the lower bands indicate the isoform in which the middle Exon X is skipped. Each set of gels is one of the triplicates used to generate the bar plots beneath. […] The statistical significance, as shown in FIGS. 4C-4F, was determined via two-tailed, unpaired Student's test: *p<0.05; **p<0.01; ***p<0.001.
In another example from Table 18, the ClinVar and CNN model predictions related to the CFTR gene carrying a c.2988G>A mutation (see FIG. 4D) were confirmed by stably expressing a minigene containing the full length CFTR coding sequence carrying the c.2988G>A mutation and flanking introns (EMG-MUT)^63 in HEK293 cells. The c.2988G>A mutation was reported to cause skipping of exon 18 in the CFTR gene and is associated with abnormal CFTR function and a mild form of Cystic Fibrosis^64. Using RT-PCR, the minigene was confirmed to harbor the mutation (EMG-MUT), showing only 5% exon 18 inclusion.

[3] = Tolerability and weight assessment of TgFD9 mice; assay type: in vivo; settings: oral gavage once daily for 7 days, 10, 30, 60 or 100 mg/kg
Experimental: FIGS. 7C-E show the relative expression of full-length (FL) and Δ20 ELP1 mRNA (left graphs), and ELP1 protein quantification (right graphs) in kidney (FIG. 7C), heart (FIG. 7D) and skin (FIG. 7E) after oral doses of Compound (I) ranging from 10 to 100 mg/kg in adult transgenic TgFD9 mouse (n=4-6 mice in each treatment group). Comparisons were done within the same group, against the vehicle-treated mice. […] The levels of compound were measured using mass spectrometry. In the figure, *p<0.05; **p<0.01; ***p<0.001.
Compound (I) was evaluated in vivo to determine whether splicing correction can lead to a concomitant increase in ELP1 protein. In brief, TgFD9 transgenic mice, which carry the human ELP1 gene with a Exon 20 splice mutation, were treated by oral gavage once daily for 7 days with Compound (I) as a suspension in 0.5% HPMC, 0.1% Tween 80 at a dose of 10, 30, 60 or 100 mg/kg. The mice used for this study were housed in an animal facility, provided with access to food and water ad libitum, and maintained on a 12-hour light/dark cycle. For routine genotyping, genomic DNA was prepared from tail biopsies and PCR was carried out to detect the TgFD9 transgene using the following primers—forward 5′-[…]-3′; reverse, 5′-[…]-3′. Mice were sacrificed 1 hour after the last dose.
The level of splicing correction correlated with Compound (I) tissue distribution (FIGS. 7F-7G).

For `Clc1nc(NCc2ccncc2)c2cc[nH]c2n1` [Compound (I), 2-chloro-N-(pyridin-4-ylmethyl)-7H-pyrrolo[2,3-d]pyrimidin-4-amine], the “full-length ELP1 transcript” value [1] was “increased full-length ELP1 transcript in a dose-dependent manner”, the “exon 18 inclusion in EMG-MUT” value [2] was “significantly increased exon inclusion” and the “tolerability, weight loss, adverse effects” value [3] was “well tolerated with no weight loss or adverse effects observed”.
